{
  "source": "patent US10829506B2",
  "about": "“Amino- or ammonium-containing sulfonic acid, phosphonic acid and carboxylic acid derivatives and their medical use” (GRI Bio, Inc., priority 2011, dated 2020)",
  "key": {"RBL-2H3 cells": {"system": "RBL-2H3 cells", "test": "Maximum tolerated concentration (cytotoxicity by lactate dehydrogenase release)", "format": "cell-based, rat", "text": "A commercially available cytotoxicity test was used (Promega Cytotox-One cat. #67891).\nThe safety index (SI) of a test compound Is the ratio between the maximum tolerated concentration and the 1C50 and is used as a measure of the relative safety of the test compound."}, "BALB/cJW mice": {"system": "BALB/cJW mice", "test": "Delayed-type hypersensitivity (DTH) reaction, mouse ear swelling", "format": "in vivo", "method": "The anti-inflammatory and anti-allergic effects of compound 1a was assessed in a mouse model of skin delayed-type hypersensitivity (DTH) reactions and compared to a vehicle control and to the reference drug dexamethasone. DTH reactions are antigen-specific cell-mediated immune responses, driven primarily by T helper type 1 (Th1) cells, similar to the tuberculin immunization response. The immune reaction induced by an ovalbumin challenge to animals previously sensitized with ovalbumin in Complete Freund's Adjuvant, is characterized by swelling (edema) at the site of challenge, e.g. the mouse ear. Dexamethasone, an anti-inflammatory steroid, reduces cell-mediated immune responses and was employed to validate the responsiveness of the assay to pharmacological treatment.\nFemale BALB/cJW mice were bred at the University of Lodz, Lodz, Poland and housed in groups of 8 in makrolon cages with a 12 h light-dark cycle. Mice were given free access to food (Agropol S. j., Motycz, Poland) and water.\nGroup size was n=8 mice unless otherwise stated. Test compound was freshly prepared before administration.\nSensitization: The protein antigen, ovalbumin, was reconstituted in PBS at 4 mg/ml. […] The emulsion was tested by putting a drop of emulsion onto PBS; if the emulsion remained as a light droplet on the PBS, the emulsion was deemed ready. […]\nChallenge: On the sixth day after sensitization, DTH was elicited by challenging animals subcutaneously (gauge 30 needle, B. Braun Melsungen, Melsungen, Germany) in the left ears with 10 μL of a 1% suspension of heat-aggregated ovalbumin (HOVA) (100 μg ovalbumin per mouse). […] Ear thickness was measured with a precise spring-loaded caliper (Art. No, 7309, Mltutoyo, Kawasaki, Japan) before challenge, and 24 h after challenge. […]\nTo account for individual variability, the increase in right ear thickness, before and 24 h after administration of PBS, was subtracted from the HOVA-induced increase in left ear thickness. The increase in ear thickness was calculated by the difference between ear thickness before and 24 h after antigen challenge. […]"}, "[1]": {"test": "Body weight and toxic side-effects in the DTH study", "format": "in vivo, mice", "details": "oral", "method": "Three hours after the last dose, the antigen challenge was performed on the ears as described above. Dexamethasone was given at 1 mg/kg orally by gavage 3 h before sensitization and once daily with the final dose given 3 h prior to antigen challenge (a total of 7 administrations). All administrations were given in a volume of 10 mL/kg.\nSuch high dosing (overdose) is, however, not suitable for treatment of humans due to severe side effects of the corticosteroid and was only used to validate the responsiveness of the model."}, "BALB/c-mice": {"system": "BALB/c-mice", "test": "Local lymph node weight and cell count after TDI challenge", "format": "in vivo", "method": "Directly after sacrifice, the ear draining lymph node (Ln. auricufaris) was prepared and excised. Organ weight was determined by means of an analytical balance (Kern, Balingen, Germany). Single cell suspensions were prepared by means of a glass potter (VWR, Darmstadt, Germany) and cells were counted with a hemocytometer (Neubauer, V W R, Germany).\nOne of the most undesirable side-effects of corticosteroid administration is immunosuppression, which leads to the inability to effectively address parasitic infection, wound healing and tumor growth. In the current study, the local lymph node reaction after TDI challenge (lymph node weight and cell number) was determined to assess the response of immune organs."}},
  "data": [
    {"smiles": "CCCCCCCCCCCCCC[N+](C)(C)CCCS(=O)(=O)[O-]", "note": "[Compound 1a, 3-(N,N-Dimethylmyristylammonio)-Propanesulfonate]", "values": [
      {"measurement": "MTC (maximum tolerated concentration)", "setting": "RBL-2H3 cells; highest concentration not causing cytotoxicity, LDH release", "value": 100, "unit": "µM"},
      {"measurement": "SI (safety index, ratio MTC/IC50)", "setting": "RBL-2H3 cells; ratio between maximum tolerated concentration and IC50", "value": 31.3},
      {"measurement": "Inhibition of DTH response relative to that of a high dose of dexamethasone", "setting": "BALB/cJW mice; 1a oral vs dexamethasone 1 mg/kg", "value": 65, "unit": "%"},
      {"measurement": "Inhibition of mouse ear swelling (DTH response)", "setting": "BALB/cJW mice; oral, 1a 100 mg/kg (loading dose, then maintenance doses), dexamethasone 1.0 mg/kg once daily, 24 h after ovalbumin challenge", "value": 32, "unit": "%"},
      {"measurement": "Toxic side-effects during the course of the study", "setting": "[1]", "value": "no toxic side-effects"},
      {"measurement": "Local lymph node reaction (lymph node weight and cell number)", "setting": "BALB/c-mice; systemic treatment at 100 mg/kg", "value": "did not have any impact"},
      {"measurement": "Local lymph node reaction (lymph node weight and cell number)", "setting": "BALB/c-mice; topical treatment at 2% or 6%", "value": "did not have any impact"}
    ]}
  ]
}
